Reference: PMC9939733 (The Journal of Biological Chemistry, 2023)
Numbering of substitutions follows the chain as printed.

Legend:
Type in all cases: biochemical
R132H IDH1 [1] = target: T1, R132H IDH1 (Homo sapiens, UniProt O75874, R132H); assay: Absorbance assay (NADPH consumption), substrate turnover in the absence of 2OG; design: made in house; host or cells: Escherichia coli BL21(DE3) pLyS; conditions: no 2OG; […] test compound, 0.03 μM R132H IDH1, 50 μM NADPH; 2OG = 100
Procedure: (§1) Compounds were dispensed using a CyBio SDW-CW CyBi-Well Simultaneous Pipettor and assay started using a ThermoFisher Multidrop Combi reagent dispenser.
(§2) Reactions were performed as technical quadruplicates.

WT IDH2 = target: T2, WT IDH2 (Homo sapiens, UniProt P48735); assay: Absorbance assay, WT activity in the presence of equimolar DL-isocitrate (inhibition); conditions: […] isocitrate and […] test compound, 75 μM NADP+, 2.0 nM WT IDH2
T2 construct: made in house; host or cells: Sf21 insect cells (cell pellets prepared at Evotec)
T2 sequence (P48735 40-452): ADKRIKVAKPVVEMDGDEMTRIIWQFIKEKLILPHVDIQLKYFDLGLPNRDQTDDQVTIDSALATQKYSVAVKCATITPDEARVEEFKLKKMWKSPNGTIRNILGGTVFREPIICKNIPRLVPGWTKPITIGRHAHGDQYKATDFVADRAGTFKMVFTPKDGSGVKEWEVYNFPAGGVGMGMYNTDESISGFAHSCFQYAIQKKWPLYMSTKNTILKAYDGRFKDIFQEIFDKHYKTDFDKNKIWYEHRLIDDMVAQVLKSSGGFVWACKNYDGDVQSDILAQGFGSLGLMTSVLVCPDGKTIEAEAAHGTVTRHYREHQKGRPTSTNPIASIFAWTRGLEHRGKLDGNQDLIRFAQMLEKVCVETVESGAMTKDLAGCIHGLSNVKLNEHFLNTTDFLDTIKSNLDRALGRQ
Procedure: as §1, §2

WT IDH1 = target: T3, WT IDH1 (Homo sapiens, UniProt O75874); assay: as above; conditions: […] isocitrate and […] test compound, 75 μM NADP+, 2.0 nM WT IDH1
T3 construct: made in house; host or cells: Escherichia coli BL21(DE3) pLyS
Procedure: as §1, §2

R140Q IDH2 [2] = target: T4, R140Q IDH2 (Homo sapiens, UniProt P48735, R140Q); assay: Absorbance assay, variant activity in the presence of equimolar 2OG (inhibition screen); conditions: 6.0 mM 2OG and 6.0 mM test compound, 0.03 μM R140Q IDH2, 50 μM NADPH
T4 construct: made in house; host or cells: Sf21 insect cells (cell pellets prepared at Evotec)
T4 sequence (P48735 40-452 R140Q): T2 sequence (P48735 40-452) with R101Q
Procedure: as §1, §2

R172K IDH2 [3] = target: T5, R172K IDH2 (Homo sapiens, UniProt P48735, R172K); assay: as above; conditions: 1.0 mM 2OG and 1.0 mM test compound, 0.03 μM R172K IDH2, 50 μM NADPH
T5 construct: made in house; host or cells: Sf21 insect cells (cell pellets prepared at Evotec)
T5 sequence (P48735 40-452 R172K): T2 sequence (P48735 40-452) with R133K
Procedure: as §1, §2

R132H IDH1 [4] = target: T1, R132H IDH1; assay: as above; design: made in house; host or cells: Escherichia coli BL21(DE3) pLyS; conditions: […] 2OG and […] test compound, 0.03 μM R132H IDH1, 50 μM NADPH
Procedure: as §1, §2

R140Q IDH2 [5] = target: T4, R140Q IDH2; assay: Absorbance assay (NADPH consumption), substrate turnover in the absence of 2OG; conditions: no 2OG, 6.0 mM test compound, 0.03 μM R140Q IDH2, 50 μM NADPH, 2OG = 100
Procedure: as §1, §2

R172K IDH2 [6] = target: T5, R172K IDH2; assay: as above; conditions: no 2OG; 1.0 mM test compound, 0.03 μM R172K IDH2, 50 μM NADPH; 2OG = 100
Procedure: as §1, §2

T1 sequence (O75874 whole entry R132H): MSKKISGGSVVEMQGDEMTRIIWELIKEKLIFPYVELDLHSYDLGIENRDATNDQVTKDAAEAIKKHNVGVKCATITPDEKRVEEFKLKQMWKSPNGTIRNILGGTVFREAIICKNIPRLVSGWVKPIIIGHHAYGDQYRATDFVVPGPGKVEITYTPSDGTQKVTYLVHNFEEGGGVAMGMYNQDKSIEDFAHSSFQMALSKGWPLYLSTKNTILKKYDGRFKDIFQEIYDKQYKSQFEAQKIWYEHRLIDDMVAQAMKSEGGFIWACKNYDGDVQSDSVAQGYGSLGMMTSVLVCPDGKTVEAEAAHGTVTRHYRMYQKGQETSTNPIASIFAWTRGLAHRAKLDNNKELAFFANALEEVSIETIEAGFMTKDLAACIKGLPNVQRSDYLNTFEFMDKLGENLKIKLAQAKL
T3 sequence (O75874 whole entry): as the sequence (O75874 whole entry R132H) above, with H132R counted along it

SMILES	activity [%] (%-substrate conversion after 20 min incubation) (R132H IDH1 [1])	activity [%] (%-substrate conversion after 20 min incubation) (WT IDH2)	activity [%] (%-substrate conversion after 20 min incubation) (WT IDH1)	activity [%] (%-substrate conversion after 20 min incubation) (R140Q IDH2 [2])	activity [%] (%-substrate conversion after 20 min incubation) (R172K IDH2 [3])	activity [%] (%-substrate conversion after 20 min incubation) (R132H IDH1 [4])	activity [%] (%-substrate conversion after 20 min incubation) (R140Q IDH2 [5])	activity [%] (%-substrate conversion after 20 min incubation) (R172K IDH2 [6])	activity [%] (%-substrate conversion after 20 min incubation) (R140Q IDH2 [5]; listed as DL-4-hydroxy-2OG)
COC(=O)CCC(=O)C(=O)OC [dimethyl 2-oxoglutaric acid]	< 10	97 ± 2	98 ± 1	124 ± 12	100 ± 9	95 ± 3	< 10	< 10	
O=C(O)C(=O)CCc1ccccc1 [2-oxo-4-phenylbutanoic acid]	< 10	96 ± 6	94 ± 2	98 ± 8	96 ± 1	90 ± 3	< 10	< 10	
CSCCC(=O)C(=O)O [4-methylthio-2-oxobutyric acid]	< 10	98 ± 3	102 ± 2	99 ± 5	96 ± 1	97 ± 1	< 10	< 10	
NC(CCC(=O)O)C(=O)O (racemic) [DL-glutamic acid]	< 10		94 ± 7	94 ± 9	93 ± 5	83 ± 5	< 10	< 10	
O=C(O)C(=O)CC(O)C(=O)O (racemic) [DL-4-hydroxy-2-oxoglutaric acid]	< 10	87 ± 1	89 ± 1	124 ± 8	98 ± 3	82 ± 5	27 ± 3	< 10	~20
O=C(O)CC(=O)CC(=O)O [3-oxoglutaric acid]	< 10		103 ± 3	109 ± 3	100 ± 4	95 ± 2	< 10	< 10	
